Source: US20050054103A1, “Expansion of renewable stem cell populations using modulators of PI 3-kinase” (priority 2003, published 2005)

Columns and labels:
NOD/SCID mice = experiment: Engraftment of SCID mice by ex-vivo expanded human hematopoietic cells; format: in vivo; conditions: for Engraftment CD19 (%) / Engraftment CD34 (%) / Engraftment CD45 (%) / Engraftment Colonies (per 2 × 10^5 SCID BM cells): TEPA + Cytokines
Method: Engraftment of SCID mice by ex-vivo expanded human hematopoietic cells: […] After 4 weeks, the mice were sacrificed and their femora and tibias were excised and the bone marrow flushed with a syringe fitted with a 25 gauge needle. A single cell suspension was prepared, the cells were washed and an aliquot counted with Trypan blue. In order to quantitate engrafted cells of human origin, cells were stained with FITC-conjugated anti CD45 antibodies and PE-conjugated either anti CD34, CD19 or CD33 antibodies. Anti CD45 antibodies recognize human, but not mouse, cells, and thus, indicates the human origin of the cells. The proliferation and differentiation potential of the engrafted cells was assayed by cloning bone marrow cells in semi-solid medium under conditions that allow specifically growth of human derived colonies essentially as described in (56).

Cord blood-derived cells = experiment: Storage and separation of cord blood cells in the presence of TEPA, then long-term culture; format: cell-based; conditions: cells stored 24 hours at 4° C. and separated with 10 μM TEPA
Method: Cord blood-derived cells were collected and stored (unseparated) for 24 hours, at 4° C., either in the presence or absence of 10 μM TEPA. CD34^+ cells were then separated using either 10 μM TEPA-PBS buffer or TEPA free PBS buffer, respectively. Then, cells were grown in long-term cultures in the presence of 10 μM TEPA.

[1] = CB 2 (first listed) 10% FCS, 2 weeks ex-vivo
[2] = CB 2 (second listed) 10% FCS, 2 weeks ex-vivo

NCCNCCNCCNCCN [TEPA, tetraethylenepentamine]
Engraftment CD19 (%) (NOD/SCID mice; [1]): 11% | Engraftment CD34 (%) (NOD/SCID mice; [1]): 13% | Engraftment CD45 (%) (NOD/SCID mice; [1]): 56% | Engraftment Colonies (per 2 × 10^5 SCID BM cells) (NOD/SCID mice; [1]): 330 | Engraftment CD19 (%) (NOD/SCID mice; [2]): 9% | Engraftment CD34 (%) (NOD/SCID mice; [2]): 13.5% | Engraftment CD45 (%) (NOD/SCID mice; [2]): 48% | Engraftment Colonies (per 2 × 10^5 SCID BM cells) (NOD/SCID mice; [2]): 528 | Engraftment CD19 (%) (NOD/SCID mice; CB 3 10% FCS, 2 weeks ex-vivo): 5% | Engraftment CD34 (%) (NOD/SCID mice; CB 3 10% FCS, 2 weeks ex-vivo): 4% | Engraftment CD45 (%) (NOD/SCID mice; CB 3 10% FCS, 2 weeks ex-vivo): 20% | Engraftment Colonies (per 2 × 10^5 SCID BM cells) (NOD/SCID mice; CB 3 10% FCS, 2 weeks ex-vivo): 100 | Engraftment CD19 (%) (NOD/SCID mice; CB 4 1% FCS, 2 weeks ex-vivo): 8% | Engraftment CD34 (%) (NOD/SCID mice; CB 4 1% FCS, 2 weeks ex-vivo): 7% | Engraftment CD45 (%) (NOD/SCID mice; CB 4 1% FCS, 2 weeks ex-vivo): 28% | Engraftment Colonies (per 2 × 10^5 SCID BM cells) (NOD/SCID mice; CB 4 1% FCS, 2 weeks ex-vivo): 185 | Engraftment CD19 (%) (NOD/SCID mice; CB 4 1% FCS, 4 weeks ex-vivo): 14% | Engraftment CD34 (%) (NOD/SCID mice; CB 4 1% FCS, 4 weeks ex-vivo): 9% | Engraftment CD45 (%) (NOD/SCID mice; CB 4 1% FCS, 4 weeks ex-vivo): 40% | Engraftment Colonies (per 2 × 10^5 SCID BM cells) (NOD/SCID mice; CB 4 1% FCS, 4 weeks ex-vivo): 267 | Engraftment CD19 (%) (NOD/SCID mice; CB 5- FCS, 4 weeks ex-vivo): 9% | Engraftment CD34 (%) (NOD/SCID mice; CB 5- FCS, 4 weeks ex-vivo): 6% | Engraftment CD45 (%) (NOD/SCID mice; CB 5- FCS, 4 weeks ex-vivo): 21% | Engraftment Colonies (per 2 × 10^5 SCID BM cells) (NOD/SCID mice; CB 5- FCS, 4 weeks ex-vivo): 275 | Engraftment CD19 (%) (NOD/SCID mice; CB 6 1% FCS, 2 weeks ex-vivo): 19% | Engraftment CD34 (%) (NOD/SCID mice; CB 6 1% FCS, 2 weeks ex-vivo): 16% | Engraftment CD45 (%) (NOD/SCID mice; CB 6 1% FCS, 2 weeks ex-vivo): 73% | Engraftment Colonies (per 2 × 10^5 SCID BM cells) (NOD/SCID mice; CB 6 1% FCS, 2 weeks ex-vivo): 350 | Engraftment CD19 (%) (NOD/SCID mice; CB 6 10% FCS, 2 weeks ex-vivo): 26% | Engraftment CD34 (%) (NOD/SCID mice; CB 6 10% FCS, 2 weeks ex-vivo): 9% | Engraftment CD45 (%) (NOD/SCID mice; CB 6 10% FCS, 2 weeks ex-vivo): 73% | Engraftment Colonies (per 2 × 10^5 SCID BM cells) (NOD/SCID mice; CB 6 10% FCS, 2 weeks ex-vivo): 420 | cord blood samples (of 6) expanded ex-vivo that succeeded to engraft the animals (NOD/SCID mice; expanded in the presence of TEPA): 6 | duration of expansion of long-term cultures (Cord blood-derived cells): 8 weeks
